According to patent US20240109900A1, “AZABICYCLIC SHP2 INHIBITORS” (IRBM S.P.A., priority 2021, published 2024):
Where two headings read alike, the source gives them in different places.

Tests used:
[1] = biological target: SHP-2 enzyme (Met1-Leu525) (Homo sapiens (Human), UniProt Q06124); assay: SHP2 inhibition enzymatic assay; format: biochemical; settings: 0.5 nM SHP-2 activated by 500 nM IRS1 peptide, 75 μM DiFMUP substrate; read-out: SHP2wt-IC50
Outline: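 SHP-2 (Met1-Leu525), 0.5 nM, activated with 500 nM IRS1 bis-phosphopeptide, preincubated 30 min with compounds in HEPES pH 7.2 buffer with 5 mM DTT. 75 μM DiFMUP added for 30 min at room temperature, stopped with bpV; fluorescence read. IC50 from four-parameter logistic fit of % inhibition.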

[2] = system: ERK phosphorylation in KYSE-520 cells; assay: Phospho-ERK cellular assay; format: cell-based; settings: KYSE-520 cells, 2 h at 37° C., phospho-ERK1/2 (Thr202/Tyr204) TR-FRET, read-out: PERK IC50
Outline: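 TR-FRET read-out of ERK1/2 Thr202/Tyr204 phosphorylation was taken after overnight antibody incubation at room temperature. Before that, KYSE-520 cells were treated 2 h at 37 °C with compound dilutions and lysed 30 min. Percent inhibition relative to vehicle and cell-free wells was fitted four-parametrically to give IC50.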

SHP-2 enzyme (Met1-Leu525), sequence (Q06124 1-525): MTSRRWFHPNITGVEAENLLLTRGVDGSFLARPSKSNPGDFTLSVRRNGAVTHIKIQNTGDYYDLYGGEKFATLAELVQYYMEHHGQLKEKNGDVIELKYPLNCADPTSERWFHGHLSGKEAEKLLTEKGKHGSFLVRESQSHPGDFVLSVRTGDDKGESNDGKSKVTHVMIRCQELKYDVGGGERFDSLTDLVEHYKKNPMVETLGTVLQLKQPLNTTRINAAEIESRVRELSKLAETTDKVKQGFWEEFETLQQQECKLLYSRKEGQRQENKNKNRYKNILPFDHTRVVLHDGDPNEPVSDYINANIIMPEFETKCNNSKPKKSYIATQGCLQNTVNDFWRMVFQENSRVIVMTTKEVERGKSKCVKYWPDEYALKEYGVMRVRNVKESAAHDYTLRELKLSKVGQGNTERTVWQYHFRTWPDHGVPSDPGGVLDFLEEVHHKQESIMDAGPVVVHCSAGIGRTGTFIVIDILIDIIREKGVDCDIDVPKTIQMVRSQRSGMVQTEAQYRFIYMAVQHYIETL

Row | IC50 [1] [nM] | IC50 ([2]; Homo sapiens, KYSE-520, 2 h) [nM] | IC50 [2] [nM] | SMILES
1 | < 500 | < 1000 | – | Cc1nc([C@@]2(CN)[C@@H]3CN(c4cnc5c(-c6ccc7nn(C)cc7c6Cl)n[nH]c5n4)C[C@@H]32)co1 [Example 514, ((1R,5S,6r)-3-(3-(4-chloro-2-methyl-2H-indazol-5-yl)-1H-pyrazolo[3,4-b]pyrazin-6-yl)-6-(2-methyloxazol-4-yl)-3-azabicyclo[3.1.0]hexan-6-yl)methanamine]
2 | < 500 | < 1000 | – | NC[C@]1(c2ccccc2F)[C@@H]2CCN(c3cnc4c(-c5ccc6ccc(=O)[nH]c6c5Cl)n[nH]c4n3)C[C@@H]21 [Example 237, 7-(6-((1S,6R,7R)-7-(aminomethyl)-7-(2-fluorophenyl)-3-azabicyclo[4.1.0]heptan-3-yl)-1H-pyrazolo[3,4-b]pyrazin-3-yl)-8-chloroquinolin-2(1H)-one]
3 | < 500 | < 1000 | – | Cc1csc([C@@]2(CN)[C@@H]3CN(c4cnc(Sc5ccn6cc(C(=O)N(C)C)nc6c5Cl)cn4)C[C@@H]32)n1 [Example 447, 7-((5-((1R,5S,6r)-6-(aminomethyl)-6-(4-methylthiazol-2-yl)-3-azabicyclo[3.1.0]hexan-3-yl)pyrazin-2-yl)thio)-8-chloro-N,N-dimethylimidazo[1,2-a]pyridine-2-carboxamide]
4 | < 500 | < 1000 | – | NC[C@]1(c2ccccc2F)[C@@H]2CCN(c3cnc4nc(Sc5ccnc(N)c5Cl)ccc4n3)C[C@@H]21 [Example 395, 4-((2-((1S,6R,7R)-7-(aminomethyl)-7-(2-fluorophenyl)-3-azabicyclo[4.1.0]heptan-3-yl)pyrido[2,3-b]pyrazin-6-yl)thio)-3-chloropyridin-2-amine]
5 | < 500 | < 1000 | – | Cc1nc([C@@]2(CN)[C@@H]3CN(c4cnc5c(-c6ccc7nn(C)cc7c6Cl)n[nH]c5n4)C[C@@H]32)cs1 [Example 485, ((1R,5S,6r)-3-(3-(4-chloro-2-methyl-2H-indazol-5-yl)-1H-pyrazolo[3,4-b]pyrazin-6-yl)-6-(2-methylthiazol-4-yl)-3-azabicyclo[3.1.0]hexan-6-yl)methanamine]
6 | < 500 | > 5000 | – | NC[C@]1(c2ccccc2F)[C@@H]2CCN(c3cc(=O)n4cc(-c5cccc(Cl)c5Cl)ccc4n3)C[C@@H]21 [Example 408, 2-((1S,6R,7R)-7-(aminomethyl)-7-(2-fluorophenyl)-3-azabicyclo[4.1.0]heptan-3-yl)-7-(2,3-dichlorophenyl)-4H-pyrido[1,2-a]pyrimidin-4-one]
7 | < 500 | < 1000 | – | CNc1nccc(-c2n[nH]c3nc(N4CCC5C(C4)C5(CN)c4ccccc4F)cnc23)c1Cl (stereo not drawn) [Example 16, 4-(6-(7-(aminomethyl)-7-(2-fluorophenyl)-3-azabicyclo[4.1.0]heptan-3-yl)-1H-pyrazolo[3,4-b]pyrazin-3-yl)-3-chloro-N-methylpyridin-2-amine]
8 | < 500 | – | < 1000 | NC[C@]1(c2ccccc2F)[C@@H]2CCN(c3cnc4c(-c5ccc6c(c5)ncn6C(F)F)n[nH]c4n3)C[C@@H]21 [Example 418]
9 | < 500 | < 1000 | – | NC[C@]1(c2ccccc2F)[C@@H]2CCN(c3cnc4c(-c5ccnc(-c6cncnc6)c5Cl)n[nH]c4n3)C[C@@H]21 [Example 284, ((1S,6R,7R)-3-(3-(3-chloro-2-(pyrimidin-5-yl)pyridin-4-yl)-1H-pyrazolo[3,4-b]pyrazin-6-yl)-7-(2-fluorophenyl)-3-azabicyclo[4.1.0]heptan-7-yl)methanamine]
10 | < 500 | < 1000 | – | Cc1cc(C2(CN)C3CCN(c4nc5[nH]nc(-c6ccc7nc(C)sc7c6Cl)c5nc4C)CC32)no1 (stereo not drawn) [Example 110, (3-(3-(7-chloro-2-methylbenzo[d]thiazol-6-yl)-5-methyl-1H-pyrazolo[3,4-b]pyrazin-6-yl)-7-(5-methylisoxazol-3-yl)-3-azabicyclo[4.1.0]heptan-7-yl)methanamine]
11 | < 500 | < 1000 | – | Cn1ncc2ccc(-c3n[nH]c4nc(N5CC[C@@H]6[C@H](C5)[C@@]6(CN)c5ccccc5F)cnc34)c(Cl)c21 [Example 364, ((1S,6R,7R)-3-(3-(7-chloro-1-methyl-1H-indazol-6-yl)-1H-pyrazolo[3,4-b]pyrazin-6-yl)-7-(2-fluorophenyl)-3-azabicyclo[4.1.0]heptan-7-yl)methanamine]
12 | < 500 | > 5000 | – | NC[C@]1(c2ccccc2F)[C@@H]2CCN(c3cnc4c(-c5cc(C(=O)O)ccc5Cl)n[nH]c4n3)C[C@@H]21 [Example 277, 3-(6-((1S,6R,7R)-7-(aminomethyl)-7-(2-fluorophenyl)-3-azabicyclo[4.1.0]heptan-3-yl)-1H-pyrazolo[3,4-b]pyrazin-3-yl)-4-chlorobenzoic acid]
13 | < 500 | < 1000 | – | Cc1cc(C2(CN)C3CCN(c4cnc5c(-c6ccc(F)c7ncccc67)n[nH]c5n4)CC32)no1 (stereo not drawn) [Example 30, (3-(3-(8-fluoroquinolin-5-yl)-1H-pyrazolo[3,4-b]pyrazin-6-yl)-7-(5-methylisoxazol-3-yl)-3-azabicyclo[4.1.0]heptan-7-yl)methanamine]
14 | < 500 | – | < 1000 | NC[C@]1(c2ccccc2F)[C@@H]2CCN(c3cnc4c(-c5ccc6[nH]c(=O)[nH]c6c5Cl)n[nH]c4n3)C[C@@H]21 [Example 302]
15 | < 500 | < 1000 | – | Cc1cc([C@@]2(CN)[C@@H]3CCN(c4cnc5c(-c6cncc7ncccc67)n[nH]c5n4)C[C@@H]32)no1 [Example 148, ((1S,6R,7S)-3-(3-(1,7-naphthyridin-5-yl)-1H-pyrazolo[3,4-b]pyrazin-6-yl)-7-(5-methylisoxazol-3-yl)-3-azabicyclo[4.1.0]heptan-7-yl)methanamine]
16 | < 500 | < 1000 | – | Cc1cc(-c2n[nH]c3nc(N4CC[C@@H]5[C@H](C4)[C@@]5(CN)c4ccccc4F)cnc23)ccc1C(N)=O [Example 246, 4-(6-((1S,6R,7R)-7-(aminomethyl)-7-(2-fluorophenyl)-3-azabicyclo[4.1.0]heptan-3-yl)-1H-pyrazolo[3,4-b]pyrazin-3-yl)-2-methylbenzamide]
17 | < 500 | – | < 1000 | Cc1csc([C@@]2(CN)[C@@H]3CN(c4cnc5c(-c6ccc7nn(C8CC8)cc7c6Cl)n[nH]c5n4)C[C@@H]32)n1 [Example 528]
18 | < 500 | < 1000 | – | NCC1(c2cccc(F)c2)C2CCN(c3nc4[nH]nc(-c5cccc(Cl)c5Cl)c4nc3CO)CC21 (stereo not drawn) [Example 55, (6-(7-(aminomethyl)-7-(3-fluorophenyl)-3-azabicyclo[4.1.0]heptan-3-yl)-3-(2,3-dichlorophenyl)-1H-pyrazolo[3,4-b]pyrazin-5-yl)methanol]
19 | < 500 | < 1000 | – | NC[C@]1(c2ccccc2F)[C@@H]2CCN(c3cnc4c(-c5cccc6c5CC(=O)N6)n[nH]c4n3)C[C@@H]21 [Example 122, 4-(6-((1S,6R,7R)-7-(aminomethyl)-7-(2-fluorophenyl)-3-azabicyclo[4.1.0]heptan-3-yl)-1H-pyrazolo[3,4-b]pyrazin-3-yl)indolin-2-one]
20 | < 500 | < 1000 | – | Cc1csc([C@@]2(CN)[C@@H]3CCN(c4cnc5c(-c6cc7ccnn7cc6Cl)n[nH]c5n4)C[C@@H]32)n1 [Example 481, ((1S,6R,7S)-3-(3-(6-chloropyrazolo[1,5-a]pyridin-5-yl)-1H-pyrazolo[3,4-b]pyrazin-6-yl)-7-(4-methylthiazol-2-yl)-3-azabicyclo[4.1.0]heptan-7-yl)methanamine]
21 | < 500 | < 1000 | – | Cn1cc2c(Cl)c(-c3n[nH]c4nc(N5CC[C@@H]6[C@H](C5)[C@@]6(CN)c5cc(F)cc(F)c5)cnc34)ccc2n1 [Example 291, ((1S,6R,7R)-3-(3-(4-chloro-2-methyl-2H-indazol-5-yl)-1H-pyrazolo[3,4-b]pyrazin-6-yl)-7-(3,5-difluorophenyl)-3-azabicyclo[4.1.0]heptan-7-yl)methanamine]
22 | < 500 | < 1000 | – | Cn1cc2c(Cl)c(-c3n[nH]c4nc(N5C[C@@H]6[C@H](C5)[C@@]6(CN)c5nc(Cl)cs5)cnc34)ccc2n1 [Example 487, ((1R,5S,6r)-3-(3-(4-chloro-2-methyl-2H-indazol-5-yl)-1H-pyrazolo[3,4-b]pyrazin-6-yl)-6-(4-chlorothiazol-2-yl)-3-azabicyclo[3.1.0]hexan-6-yl)methanamine]
23 | < 500 | > 5000 | – | Cn1c(N2CC[C@@H]3[C@H](C2)[C@@]3(CN)c2ccccc2F)nc2[nH]nc(-c3ccc(C(N)=O)c4ncccc34)c2c1=O [Example 343, 5-(6-((1S,6R,7R)-7-(aminomethyl)-7-(2-fluorophenyl)-3-azabicyclo[4.1.0]heptan-3-yl)-5-methyl-4-oxo-4,5-dihydro-1H-pyrazolo[3,4-d]pyrimidin-3-yl)quinoline-8-carboxamide]
24 | < 500 | < 1000 | – | Cc1c(-c2n[nH]c3nc(N4CC[C@@H]5[C@H](C4)[C@@]5(CN)c4ncccc4F)cnc23)ccc2nn(C)cc12 [Example 179, ((1S,6R,7S)-3-(3-(2,4-dimethyl-2H-indazol-5-yl)-1H-pyrazolo[3,4-b]pyrazin-6-yl)-7-(3-fluoropyridin-2-yl)-3-azabicyclo[4.1.0]heptan-7-yl)methanamine]
